Experimental data: patent publication US8343961B2, “Substituted heterocyclic compounds” (ArQule, Inc., priority 2009, dated 2013)

Experiments:
[1] = molecular target: T1, EphA8 (Homo sapiens, UniProt P29322); experiment: EphA8 Kinase Activity Assay; assay type: biochemical; settings: read-out: EphA8, % INH, at 30 uM
T1 sequence (P29322 28-1005): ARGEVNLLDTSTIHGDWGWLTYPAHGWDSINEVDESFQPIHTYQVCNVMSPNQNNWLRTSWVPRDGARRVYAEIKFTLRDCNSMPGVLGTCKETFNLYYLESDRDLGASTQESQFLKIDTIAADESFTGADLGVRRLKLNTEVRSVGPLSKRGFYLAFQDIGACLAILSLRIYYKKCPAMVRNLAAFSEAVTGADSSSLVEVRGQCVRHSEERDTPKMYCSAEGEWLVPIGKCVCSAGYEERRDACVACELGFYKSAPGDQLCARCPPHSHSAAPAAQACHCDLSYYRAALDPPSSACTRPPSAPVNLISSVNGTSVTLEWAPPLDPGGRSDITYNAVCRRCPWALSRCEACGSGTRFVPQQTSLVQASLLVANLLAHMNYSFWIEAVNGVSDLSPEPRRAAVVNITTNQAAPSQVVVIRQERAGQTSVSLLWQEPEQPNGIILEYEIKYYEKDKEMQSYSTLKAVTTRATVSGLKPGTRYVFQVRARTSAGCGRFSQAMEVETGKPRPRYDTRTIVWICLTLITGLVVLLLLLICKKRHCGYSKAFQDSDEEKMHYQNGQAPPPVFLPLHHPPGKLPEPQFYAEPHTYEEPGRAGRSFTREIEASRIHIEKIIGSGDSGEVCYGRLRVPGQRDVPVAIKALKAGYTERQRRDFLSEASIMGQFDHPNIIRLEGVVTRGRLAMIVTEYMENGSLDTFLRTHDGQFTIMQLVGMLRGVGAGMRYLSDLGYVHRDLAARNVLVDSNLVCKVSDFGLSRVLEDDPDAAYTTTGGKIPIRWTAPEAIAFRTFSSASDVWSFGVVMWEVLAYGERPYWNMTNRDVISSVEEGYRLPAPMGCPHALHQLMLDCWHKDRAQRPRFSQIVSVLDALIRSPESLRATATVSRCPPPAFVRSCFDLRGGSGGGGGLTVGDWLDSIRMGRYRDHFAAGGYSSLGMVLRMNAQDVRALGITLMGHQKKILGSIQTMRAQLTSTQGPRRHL
Method: Nunc Maxisorb plates are coated with streptavidin by overnight incubation with 100 μL per well of 1 μg/ml Streptavidin in DPBS. Prior to the start of the experiment, the plates are washed with TBST (3×200 μL) and blocked for at least 1 hour by adding 150 μL of 5% BSA/TBST. The plates are washed with TBST (3×200 μL/well) and left dry immediately before the capture step.
The test articles and control (Staurosporine) are prepared using the following assay buffer @ 3× desired final concentration (50 mM Tris-HCl, 0.02 mg/ml BSA, 10 mM MgCl2, 0.1 mM Na3VO4, 1 mM EGTA, 12.5 μM ATP, 0.01% NP-40, 1 mM DTT in 10% glycerol/water). In a reaction plate are added rapidly 20 μl test article (or control) and 20 μl EphA8 (0.12 ng/μl final concentration). The plate is incubated for 15 minutes. To the reaction plate is added 20 μl of Pyk-2 (0.75 ng/μl final concentration). The plate is incubated at room temperature for one hour. From the reaction plate, 50 μl is transferred to the streptavidin coated plate. The capture plate is incubated at room temperature for 30 minutes, then washed 6× with TBST. To the capture plate is added 100 μL/well of Cell Signaling anti-phospho tyrosine at a dilution of 1:3000 in 2% BSA/TBST. The plate is incubated for one hour at room temperature then washed 6× with TBST. To the capture plate is added 100 μL/well of Alkaline Phosphatase Tagged Goat anti Mouse Antibody at a dilution of 1:4000 in 2% BSA/TBST. The plate is incubated for one hour at room temperature then washed 6× with TBST. The fluorescent readout is initiated by the addition of 100 μl/well of Attophos reagent (6 mg/10 mL). The reading is done on the Perkin Elmer Envision system.

[2] = molecular target: RET kinase (Homo sapiens, UniProt P07949); experiment: RET Kinase Activity Assay; assay type: biochemical; settings: read-out: Ret, % INH, at 30 uM
How it was run: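 RET […] was preincubated with compound for 15 min, then phosphorylated biotinylated Pyk-2 substrate for 1 h at room temperature with 75 μM ATP and 10 mM MgCl2. Product was captured on streptavidin plates and detected with anti-phosphotyrosine, an AP-tagged secondary antibody and Attophos fluorescence.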

RET kinase, sequence (P07949 29-1114): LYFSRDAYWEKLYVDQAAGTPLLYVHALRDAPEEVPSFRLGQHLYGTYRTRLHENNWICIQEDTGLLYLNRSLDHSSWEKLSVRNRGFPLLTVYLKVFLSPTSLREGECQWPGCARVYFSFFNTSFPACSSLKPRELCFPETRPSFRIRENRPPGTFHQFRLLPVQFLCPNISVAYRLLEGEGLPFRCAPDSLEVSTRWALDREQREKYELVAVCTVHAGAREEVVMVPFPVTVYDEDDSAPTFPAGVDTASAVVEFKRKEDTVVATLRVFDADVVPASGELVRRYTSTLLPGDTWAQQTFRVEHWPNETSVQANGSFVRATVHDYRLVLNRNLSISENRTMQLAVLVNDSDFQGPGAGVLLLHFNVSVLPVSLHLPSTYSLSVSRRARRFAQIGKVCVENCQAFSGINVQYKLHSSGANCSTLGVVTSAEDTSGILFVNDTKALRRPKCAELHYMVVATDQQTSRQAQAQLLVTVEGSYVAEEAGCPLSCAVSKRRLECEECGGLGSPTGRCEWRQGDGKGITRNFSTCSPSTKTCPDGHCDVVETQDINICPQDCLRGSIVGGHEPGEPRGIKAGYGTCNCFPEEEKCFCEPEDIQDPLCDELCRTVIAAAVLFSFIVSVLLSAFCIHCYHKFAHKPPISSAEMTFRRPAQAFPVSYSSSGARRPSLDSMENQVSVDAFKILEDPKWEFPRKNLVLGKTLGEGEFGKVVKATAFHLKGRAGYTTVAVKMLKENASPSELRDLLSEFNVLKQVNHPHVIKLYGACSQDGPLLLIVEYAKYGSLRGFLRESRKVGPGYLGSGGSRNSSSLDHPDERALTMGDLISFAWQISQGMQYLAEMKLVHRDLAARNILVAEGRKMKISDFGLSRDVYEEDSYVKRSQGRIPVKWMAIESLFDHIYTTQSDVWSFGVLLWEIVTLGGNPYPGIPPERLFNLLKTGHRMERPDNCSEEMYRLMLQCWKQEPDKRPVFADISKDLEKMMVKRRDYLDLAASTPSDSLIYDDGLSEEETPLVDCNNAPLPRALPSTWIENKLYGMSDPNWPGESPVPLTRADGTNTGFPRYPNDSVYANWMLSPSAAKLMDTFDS

## Cc1ccccc1CN1CCN(c2nc(N)nc3[nH]ncc23)Cc2ccccc21 [Compound 12, 4-[1-(2-methylbenzyl)-1,2,3,5-tetrahydro-4H-1,4-benzodiazepin-4-yl]-1H-pyrazolo[3,4-d]pyrimidin-6-amine]
[1]
  inhibition at 30 µM: < 50%
[2]
  inhibition at 30 µM: < 50%

## COc1cc2c(cc1OC)C(CCc1ccccc1)N(c1nc(N)nc3[nH]ncc13)CC2 (stereo not shown) [Compound 51, 4-[6,7-dimethoxy-1-(2-phenylethyl)-3,4-dihydroisoquinolin-2(1H)-yl]-1H-pyrazolo[3,4-d]pyrimidin-6-amine]
[1]
  inhibition at 30 µM: < 50%
[2]
  inhibition at 30 µM: 50 to 79%

## Nc1nc(N2CCN(Cc3cccc(Cl)c3)c3ccccc3C2)c2cn[nH]c2n1 [Compound 25, 4-[1-(3-chlorobenzyl)-1,2,3,5-tetrahydro-4H-1,4-benzodiazepin-4-yl]-1H-pyrazolo[3,4-d]pyrimidin-6-amine]
[1]
  inhibition at 30 µM: < 50%
[2]
  inhibition at 30 µM: < 50%

## COc1ccc(CN2CCN(c3nc(N)nc4[nH]ncc34)Cc3ccccc32)cc1OC [Compound 28, 4-[1-(3,4-dimethoxybenzyl)-1,2,3,5-tetrahydro-4H-1,4-benzodiazepin-4-yl]-1H-pyrazolo[3,4-d]pyrimidin-6-amine]
[1]
  inhibition at 30 µM: < 50%
[2]
  inhibition at 30 µM: < 50%

## Nc1nc(N2CCN(Cc3cccc(F)c3)c3ccccc3C2)c2cn[nH]c2n1 [Compound 6, 4-[1-(3-fluorobenzyl)-1,2,3,5-tetrahydro-4H-1,4-benzodiazepin-4-yl]-1H-pyrazolo[3,4-d]pyrimidin-6-amine]
[1]
  inhibition at 30 µM: 50 to 79%
[2]
  inhibition at 30 µM: 50 to 79%
